Like-named read-outs stand apart in the source and are kept apart here.
Experiments:
bromodomain = assay: at least one of the bromodomain cell assays of Example 57; format: cell-based; conditions: at least one of the bromodomain cell assays described in Example 57; read-out: IC50 in at least one of the bromodomain cell assays
MV-4-11 cells = assay: Oncology cell growth assay MV-4-11 (CellTiter Glo); format: cell-based; conditions: Homo sapiens, MV4-11, 72 h, read-out: Cell activity (IC50 μM) MV-4-11 3d-Growth
Method in brief: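 MV-4-11 AML cells (MLL-AF4), 3000 per well, exposed to 8-point 1:3 compound titration from 10 μM top concentration (0.2% DMSO) for 72 h. Viability by CellTiter Glo luminescence, normalized to DMSO controls; pIC50 from four-parameter curve fit.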

BRD4-BD12 (1-477) = BRD4-BD12 (1-477) (Homo sapiens (Human), UniProt O60885); assay: Alphascreen binding assay BRD4-BD12; conditions: BRD4(1 2) H4; read-out: Biochemical activity (IC50 μM) BRD4(1 2) H4
Method in brief: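 First, compound was preincubated 1 h at room temperature with the His-tagged BRD4 protein (BD1 44-164 or tandem BD12 1-477) and acetylated H4 peptide. Next, donor and acceptor beads were added at 7.5 μg/ml final. After 30 min, AlphaScreen emission was recorded.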

Structure (SMILES)	IC50 (bromodomain) [µM]	IC50 (MV-4-11 cells; MV-4-11, 3d growth) [µM]	IC50 (BRD4-BD12 (1-477)) [µM]	IC50 (MV-4-11 cells) [µM]
Cn1cc(-c2cn(CC3CCC(F)(F)CC3)c3cc(-c4ccc(O)nc4)cnc23)cn1 [P-0437, 5-[1-[(4,4-difluorocyclohexyl)methyl]-3-(1-methylpyrazol-4-yl)pyrrolo[3,2-b]pyridin-6-yl]pyridin-2-ol]	< 10	< 1	< 1	
[2H]C([2H])(C1CCC(F)(F)CC1)n1cc(-c2cnn(CCC#N)c2)c2ncc(-c3c(C)noc3C)cc21 [P-0339, 3-[4-[1-[dideuterio-(4,4-difluorocyclohexyl)methyl]-6-(3,5-dimethylisoxazol-4-yl)pyrrolo[3,2-b]pyridin-3-yl)pyrazol-1-yl]propanenitrile]	< 10		< 1	< 1
Cc1noc(C)c1-c1cnc2c(C#CC(=O)O)cn(CC3CCC(F)(F)CC3)c2c1 [P-0462, 3-[1-[(4,4-difluorocyclohexyl)methyl]-6-(3,5-dimethylisoxazol-4-yl)pyrrolo[3,2-b]pyridin-3-yl]prop-2-ynoic acid]	< 10	1 to 10	< 1	
[2H]C([2H])(C1CCC(F)(F)CC1)n1cc(-c2cnc(N)nc2)c2ncc(-c3c(C)noc3C)cc21 [P-0348, 5-[1-[dideuterio-(4,4-difluorocyclohexyl)methyl]-6-(3,5-dimethylisoxazol-4-yl)pyrrolo[3,2-b]pyridin-3-yl]pyrimidin-2-amine]	< 10		< 1	< 1
Cc1noc(C)c1-c1cnc2c(-c3cccc(NS(C)(=O)=O)c3)cn(CC3(F)CCCCC3)c2c1 [P-0492, N-[3-0[6-(3,5-dimethylisoxazol-4-yl)-1-[(1-fluorocyclohexyl)methyl]pyrrolo[3,2-b]pyridin-3-yl]phenyl]methanesulfonamide]	< 10	< 1	< 1	
Cc1noc(C)c1-c1cnc2c(-c3cnn(C)c3)cn([C@H](C)c3ccccn3)c2c1 [P-0519, 3,5-dimethyl-4-[3-(1-methylpyrazol-4-yl)-1-[(1R)-1-(2-pyridyl)ethyl]pyrrolo[3,2-b]pyridin-6-yl]isoxazole]	< 10	< 1	< 1	
Cc1noc(C)c1-c1cnc2c(-c3ccc(C#N)cc3)cn([C@@H](C)c3ccccn3)c2c1 [P-0573, 4-[6-(3,5-dimethylisoxazol-4-yl)-1-[(1S)-1-(2-pyridyl)ethyl]pyrrolo[3,2-b]pyridin-3-yl]benzonitrile]	< 10	< 1	< 1	
Cc1noc(C)c1-c1cnc2c(-c3ccc(C#N)nc3)cn(CC3CCC(F)(F)CC3)c2c1 [P-0594, 5-[1-[(4,4-difluorocyclohexyl)methyl]-6-(3,5-dimethylisoxazol-4-yl)pyrrolo[3,2-b]pyridin-3-yl]pyridine-2-carbonitrile]	< 10	< 1	< 1	
Cc1noc(C)c1-c1cnc2c(-c3cn[nH]c3)cn(CC3CCC(F)(F)CC3)c2c1 [P-0392, 4-[1-[(4,4-difluorocyclohexyl)methyl]-3-(1H-pyrazol-4-yl)pyrrolo[3,2-b]pyridin-6-yl]-3,5-dimethyl-isoxazole]	< 10		< 1	< 1
[2H]C([2H])(C1CCC(F)(F)CC1)n1cc(-c2ccc(C(=O)O)cc2)c2ncc(-c3c(C)noc3C)cc21 [P-0363, 4-[1-[dideuterio-(4,4-difluorocyclohexyl)methyl]-6-(3,5-dimethylisoxazol-4-yl)pyrrolo[3,2-b]pyridin-3-yl]benzoic acid]	< 10		< 1	< 1
Cc1noc(C)c1-c1cnc2c(-c3ccc(C(F)(F)C(=O)O)cc3)cn([C@@H](C)c3ccccn3)c2c1 [P-0566, 2,2-difluoro-2-(4-(6-(3,5-dimethylisoxazol-4-yl)-1-((S)-1-(pyridin-2-yl)ethyl)-1H-pyrrolo[3,2-b]pyridin-3-yl)phenyl)acetic acid]	< 10	1 to 10	< 1	
Cc1cc(-c2cn(CC3CCC(F)(F)CC3)c3cc(-c4c(C)noc4C)cnc23)ccc1C(=O)O [P-0483, 4-[1-[(4,4-difluorocyclohexyl)methyl]-6-(3,5-dimethylisoxazol-4-yl)pyrrolo[3,2-b]pyridin-3-yl]-2-methyl-benzoic acid]	< 10	< 1	< 1	
Cc1noc(C)c1-c1cnc2c(c1)c(CC1CCC(F)(F)CC1)cn2-c1ncc(C(=O)O)cn1 [P-0443, 2-[3-[(4,4-difluorocyclohexyl)methyl]-5-(3,5-dimethylisoxazol-4-yl)pyrrolo[2,3-b]pyridin-1-yl]pyrimidine-5-carboxylic acid]	< 10	1 to 10	< 1	
Cc1noc(C)c1-c1cnc2c(-c3ccc(C(=O)O)cc3)cn(CC3CCCCCC3)c2c1 [P-0586, 4-[1-(cycloheptylmethyl)-6-(3,5-dimethylisoxazol-4-yl)pyrrolo[3,2-b]pyridin-3-yl]benzoic acid]	< 10	< 1	< 1	
COC(=O)c1ccc(-c2cn(CC3CC4(CCC4)C3)c3cc(-c4c(C)noc4C)cnc23)cc1 [P-0602, methyl 4-[6-(3,5-dimethylisoxazol-4-yl)-1-(spiro[3.3]heptan-6-ylmethyl)pyrrolo[3,2-b]pyridin-3-yl]benzoate]	< 10	< 1	< 1	
Cc1noc(C)c1-c1cnc2c(-c3cnn(CC(F)(F)F)c3)cn(Cc3ccccn3)c2c1 [P-0376, 3,5-dimethyl-4-[1-(2-pyridylmethyl)-3-[1-(2,2,2-trifluoroethyl)pyrazol-4-yl]pyrrolo[3,2-b]pyridin-6-yl]isoxazole]	< 10		< 1	< 1
CNS(=O)(=O)c1cccc(-c2cn(CC3(F)CCCCC3)c3cc(-c4c(C)noc4C)cnc23)c1 [P-0489, 3-[6-(3,5-dimethylisoxazol-4-yl)-1-[(1-fluorocyclohexyl)methyl]pyrrolo[3,2-b]pyridin-3-yl]-N-methyl-benzenesulfonamide]	< 10	< 1	< 1	
Cc1noc(C)c1-c1cnc2c(-c3ccc(C(=O)O)c(O)c3)cn(CC3(F)CCCCC3)c2c1 [P-0502, 4-[6-(3,5-dimethylisoxazol-4-yl)-1-[(1-fluorocyclohexyl)methyl]pyrrolo[3,2-b]pyridin-3-yl]-2-hydroxy-benzoic acid]	< 10	< 1	< 1	
Cc1noc(C)c1-c1cnc2c(-c3ccc(C(=O)OC(C)(C)C)cc3)cn(C(CC#N)C3CCCC3)c2c1 (stereo not shown) [P-0526, tert-butyl 4-[1-(2-cyano-1-cyclopentyl-ethyl)-6-(3,5-dimethylisoxazol-4-yl)pyrrolo[3,2-b]pyridin-3-yl]benzoate]	< 10	< 1	< 1	
Cc1noc(C)c1-c1cnc2c(Br)c[nH]c2c1 [P-0263, 4-(3-bromo-1H-pyrrolo[3,2-b]pyridin-6-yl)-3,5-dimethyl-isoxazole]	< 10		< 1	
COC(=O)c1ccc(-c2cn(Cc3ccccc3)c3cc(-c4c(C)noc4C)cnc23)cc1 [P-0919, methyl 4-[1-benzyl-6-(3,5-dimethylisoxazol-4-yl)pyrrolo[3,2-b]pyridin-3-yl]benzoate]		< 1	< 1	
Cc1noc(C)c1-c1cnc2c(-c3ccc(C(=O)O)cc3)cn([C@H](c3ccccn3)C3CC3)c2c1 [P-0990, 4-[1-[(S)-cyclopropyl(2-pyridyl)methyl]-6-(3,5-dimethylisoxazol-4-yl)pyrrolo[3,2-b]pyridin-3-yl]benzoic acid]		< 1	< 1	
COC(=O)c1ccc(-c2cn(Cc3cnc(C)s3)c3cc(-c4c(C)noc4C)cnc23)cc1 [P-0957, methyl 4-[6-(3,5-dimethylisoxazol-4-yl)-1-[(2-methylthiazol-5-yl)methyl]pyrrolo[3,2-b]pyridin-3-yl]benzoate]		< 1	< 1	
Cc1noc(C)c1-c1ccc2c(-c3cnn(CC(F)(F)F)c3)cn(C(c3ccccc3)c3ccccn3)c2c1 (stereo not shown) [P-1046, 3,5-dimethyl-4-[1-[phenyl(2-pyridyl)methyl]-3-[1-(2,2,2-trifluoroethyl)pyrazol-4-yl]indol-6-yl]isoxazole]		< 1	< 1	
CC[C@@H](c1ccccn1)n1cc(-c2ccc(C(=O)OC)cc2)c2ncc(-c3c(C)noc3C)cc21 [P-0966, methyl 4-[6-(3,5-dimethylisoxazol-4-yl)-1-[(1S)-1-(2-pyridyl)propyl]pyrrolo[3,2-b]pyridin-3-yl]benzoate]		< 1	< 1	
COc1cc(-c2cn(C(c3ccccn3)C3CCCC3)c3cc(-c4c(C)noc4C)cnc23)ccc1C(=O)O (stereo not shown) [P-1048, 4-[1-[cyclopentyl(2-pyridyl)methyl]-6-(3,5-dimethylisoxazol-4-yl)pyrrolo[3,2-b]pyridin-3-yl]-2-methoxy-benzoic acid]		< 1	< 1	
CC[C@H](c1ccccn1)n1cc(-c2ccc(CC(=O)OC)cc2)c2ncc(-c3c(C)noc3C)cc21 [P-0961, methyl 2-[4-[6-(3,5-dimethylisoxazol-4-yl)-1-[(1R)-1-(2-pyridyl)propyl]pyrrolo[3,2-b]pyridin-3-yl]phenyl]acetate]		< 1	< 1	
